This passage reports EC50, inhibition and Emax results from patent US10463651B2, “3-(1H-pyrrolo[3,2-C]pyridin-2-YL)-1H-indazoles and therapeutic uses thereof” (Samumed, LLC, priority 2015, dated 2019).

A value given as a limit tells only on which side of the number the result lay.

What all share (type): cell-based
For assay [1], the system named is primary human fibroblasts derived from IPF patients (LL29 cells) treated with TGF-β1. As to the kind of experiment: Inhibition of the fibrotic process (αSMA staining) in TGF-β1-treated fibroblasts. As to conditions: Fibroblast, 96 h; for EC50: % αSMA-positive LL29 cells, TGF-β1 20 ng/mL, 4 days. A digest of the protocol:
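LL29 fibroblasts from IPF patients, 1,500 cells/well in F12 with 1% FBS, stimulated with TGF-β1; TGF-β1 plus DMSO wells as controls. Incubation 4 days, then SYTOX green 1 μM final for 30 min at room temperature. Fibrotic response read as αSMA staining.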

Assay [2] relates to IL-6 (THP-1 cells). Briefly: IL-6 inhibition in LPS-stimulated THP-1 cells (HTRF). To be noted: Homo sapiens; for inhibition at 10 µM: THP-1, read-out: percent inhibition at 10 M; for EC50: IL6 by HTRF, THP-1 cells, 500 ng/mL LPS, 22 hours. A digest of the protocol: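 THP-1 cells, pre-cultured 24 h in 1% FBS medium, treated with compound 2 h at 37 °C, then stimulated with 500 ng/mL LPS for 22 h. Secreted IL-6 measured by HTRF as the 665/620 nm ratio. Values normalized to DMSO; EC50 from four-parameter fit, duplicates.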
A general note: Time-resolved FRET reads energy transfer from a long-lived donor to a nearby acceptor.

The test system of assay [3] is Wnt activity (Sp5-Luc reporter, SW480 colon carcinoma cells). Briefly: Screening assay for Wnt activity (Sp5-Luc reporter gene assay in SW480 cells). To be noted: Homo sapiens; for EC50: Sp5-Luc reporter, SW480 cells, incubated overnight. In a few lines:
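SW480 colon carcinoma cells stably carrying Sp5 promoter (eight TCF/LEF sites)-driven firefly luciferase, plated at 4,000 cells/well in 1% FBS medium and incubated overnight at 37° C. Luminescence normalised to DMSO-only cells; EC50 from four-parameter variable-slope nonlinear regression.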
A general note: Reporter assays use an easily measured gene product as a stand-in for the process of interest.

For assay [4], the system named is primary human mesenchymal stem cells (hMSCs). As to the kind of experiment: Induction of chondrogenesis in hMSCs (Rhodamine B / Nile Red nodule imaging). As to conditions: for Emax: maximum activity relative to TGF-β3 (10 ng/mL) positive control, read-out: Max. Activity as % TGF-β3 activity; for EC50: concentration required to induce 50% levels of chondrogenesis vs TGF-β3 positive control, read-out: Conc (nM) of 50% TGF-β3 activity. A digest of the protocol: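 Primary hMSCs at passage 3-6 were treated with compound; nodule area per well was normalized to the mean of 3 DMSO wells, averaged over 2-3 replicates, and the concentration giving 50% chondrogenesis relative to TGF-β3 control, plus maximum activity and its dose, was derived.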

Assay [5] relates to SW480 colon cancer cells. As to the kind of experiment: Cell viability assay (CellTiter-Blue). As to conditions: Homo sapiens; for EC50: 96 h, SW480 cell viability, four days, CellTiter-Blue; for inhibition at 10 µM: SW480, 96 h, read-out: percent inhibition at 10 μM. In a few lines: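 Fluorescence from resazurin reduced to resorufin by metabolically active cells was the read-out, taken after ~3 h with CellTiter-Blue.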
(In general: The colour change of resazurin is a common sign of viable cells or microbes.)

As for `CN1CCN(c2nccc3[nH]c(-c4n[nH]c5ccc(-c6cncc(CN7CCCC7)c6)cc45)cc23)CC1` [Compound 238, 3-(4-(4-Methylpiperazin-1-yl)-1H-pyrrolo[3,2-c]pyridin-2-yl)-5-(5-(pyrrolidin-1-ylmethyl)pyridin-3-yl)-1H-indazole], the EC50 in assay [1] was above 10000 nM; in assay [2], above 10000 nM; in assay [3], 9380 nM; in assay [5], 4190 nM. Further, the inhibition at 10 µM in assay [1] (read-out: percent inhibition at 10 μM) worked out at 45.7%; in assay [2] it was 40.5%. Besides, the Emax in assay [4] was 31%.

`c1cc2[nH]c(-c3n[nH]c4ccc(-c5cncc(CN6CCCCC6)c5)cc34)cc2c(-c2ccoc2)n1` [Compound 323, 3-(4-(Furan-3-yl)-1H-pyrrolo[3,2-c]pyridin-2-yl)-5-(5-(piperidin-1-ylmethyl)pyridin-3-yl)-1H-indazole]: the EC50 is 1150 nM in assay [1]; above 10000 nM in assay [2]; 890 nM in assay [3]; 10 nM in assay [4]; 3420 nM in assay [5]. Also, the inhibition at 10 µM in assay [2] stood at 16.6%. Also, in assay [4], the Emax was 177%.

For the compound `Nc1cncc(-c2ccc3[nH]nc(-c4cc5c(-c6cccnc6)nccc5[nH]4)c3c2)c1` [Compound 87, 5-(3-(4-(Pyridin-3-yl)-1H-pyrrolo[3,2-c]pyridin-2-yl)-1H-indazol-5-yl)pyridin-3-amine], the EC50 in assay [1] is 113 nM; in assay [2], 86 nM; in assay [3], 146 nM; in assay [4], 100 nM; in assay [5] it was 562 nM. The Emax in assay [4] was 178%.

In the case of `O=C(Nc1cncc(-c2ccc3[nH]nc(-c4cc5c(-c6ccc(F)cc6)nccc5[nH]4)c3c2)c1)C1CCC1` [Compound 49, N-(5-(3-(4-(4-Fluorophenyl)-1H-pyrrolo[3,2-c]pyridin-2-yl)-1H-indazol-5-yl)pyridin-3-yl)cyclobutanecarboxamide], the EC50 in assay [1] stood at 115 nM; in assay [2], 1080 nM; in assay [3] it was 365 nM; in assay [4] it was 900 nM; in assay [5] it was 186 nM. Moreover, the Emax in assay [4] is 160%.

As to `CCCC(=O)Nc1cncc(-c2ccc3[nH]nc(-c4cc5c(-c6cccc(F)c6)nccc5[nH]4)c3c2)c1` [Compound 17, N-(5-(3-(4-(3-Fluorophenyl)-1H-pyrrolo[3,2-c]pyridin-2-yl)-1H-indazol-5-yl)pyridin-3-yl)butyramide], the EC50 was determined as 19 nM in assay [1]; 34 nM in assay [2]; 50 nM in assay [3]; 2700 nM in assay [4]; 93 nM in assay [5]. In assay [4], the Emax amounted to 106%.

`O=C(Nc1cncc(-c2ccc3[nH]nc(-c4cc5c(-c6cccc(F)c6)nccc5[nH]4)c3c2)c1)C1CC1` [Compound 20, N-(5-(3-(4-(3-Fluorophenyl)-1H-pyrrolo[3,2-c]pyridin-2-yl)-1H-indazol-5-yl)pyridin-3-yl)cyclopropanecarboxamide]: the EC50 in assay [1] is 167 nM; in assay [2], 39 nM; in assay [3] it was 50 nM; in assay [4], 2700 nM; in assay [5], 179 nM. In addition, the Emax in assay [4] worked out at 91%.

As to `CC(C)(C)C(=O)Nc1cncc(-c2ccc3[nH]nc(-c4cc5c(N6CCCCC6)nccc5[nH]4)c3c2)c1` [Compound 176, N-(5-(3-(4-(Piperidin-1-yl)-1H-pyrrolo[3,2-c]pyridin-2-yl)-1H-indazol-5-yl)pyridin-3-yl)pivalamide], the EC50 worked out at 650 nM in assay [1], 350 nM in assay [2], 1320 nM in assay [3] and 1350 nM in assay [5]. Moreover, the Emax in assay [4] worked out at 35%.

Take `CC(C)(C)CC(=O)Nc1cncc(-c2ccc3[nH]nc(-c4cc5c(N6CCCCC6)nccc5[nH]4)c3c2)c1` [Compound 184, 3,3-Dimethyl-N-(5-(3-(4-(piperidin-1-yl)-1H-pyrrolo[3,2-c]pyridin-2-yl)-1H-indazol-5-yl)pyridin-3-yl)butanamide]: the EC50 in assay [1] turned out to be 1470 nM; in assay [2], 8900 nM; in assay [3], 2020 nM; in assay [4], 900 nM; in assay [5] it was 1540 nM. The Emax in assay [4] was 79%.

`CN1CCN(c2nccc3[nH]c(-c4n[nH]c5ccc(-c6cncc(NC(=O)CC7CCNCC7)c6)cc45)cc23)CC1` [Compound 641]: the EC50 in assay [1] was 9900 nM; in assay [2], above 10000 nM; in assay [3], above 10000 nM; in assay [5] it was above 10000 nM. For the same compound, the inhibition at 10 µM in assay [2] is 28.7%; in assay [3] (SW480, read-out: percent inhibition at 10 μM) it was 0%; in assay [5], 20.9%. Further, the Emax in assay [4] came out at 43%.

Regarding `Cc1ccncc1-c1ccc2[nH]nc(-c3cc4c(N5CCN(C)CC5)nccc4[nH]3)c2c1` [Compound 229, 3-(4-(4-Methylpiperazin-1-yl)-1H-pyrrolo[3,2-c]pyridin-2-yl)-5-(4-methylpyridin-3-yl)-1H-indazole], the EC50 in assay [1] came out at 2980 nM; in assay [2], 1090 nM; in assay [3], 3500 nM; in assay [5] it was 3680 nM. Besides, the Emax in assay [4] amounted to 36%.

For the compound `CC(C)C(=O)Nc1cncc(-c2ccc3[nH]nc(-c4cc5c(N6CCN(C)CC6)nccc5[nH]4)c3c2)c1` [Compound 233, N-(5-(3-(4-(4-Methylpiperazin-1-yl)-1H-pyrrolo[3,2-c]pyridin-2-yl)-1H-indazol-5-yl)pyridin-3-yl)isobutyramide], the EC50 in assay [1] was 4720 nM; in assay [2], 6110 nM; in assay [3] it was 7690 nM; in assay [5], above 10000 nM. Also, in assay [4], the Emax was 21%. Also, the inhibition at 10 µM in assay [5] was determined as 38.5%.

Take `CCC(=O)Nc1cncc(-c2ccc3[nH]nc(-c4cc5c(-c6cccc(F)c6)nccc5[nH]4)c3c2)c1` [Compound 1, N-(5-(3-(4-(3-Fluorophenyl)-1H-pyrrolo[3,2-c]pyridin-2-yl)-1H-indazol-5-yl)pyridin-3-yl)propionamide]: the EC50 in assay [1] was 41 nM; in assay [2], 35 nM; in assay [3], 45 nM; in assay [5], 102 nM. Also, in assay [4], the Emax was 16%.

Regarding `CS(=O)(=O)NCc1cc(F)cc(-c2nccc3[nH]c(-c4n[nH]c5ccc(-c6cncc(CN7CCC(F)(F)C7)c6)cc45)cc23)c1` [Compound 502, N-(3-(2-(5-(5-((3,3-Difluoropyrrolidin-1-yl)methyl)pyridin-3-yl)-1H-indazol-3-yl)-1H-pyrrolo[3,2-c]pyridin-4-yl)-5-fluorobenzyl)methanesulfonamide], the EC50 in assay [1] turned out to be 160 nM; in assay [2], 63 nM; in assay [3] it was 172 nM; in assay [4], 300 nM; in assay [5] it was 230 nM. In addition, in assay [4], the Emax stood at 175%.

With `c1cc2[nH]c(-c3n[nH]c4ccc(-c5cncc(CN6CCCCC6)c5)cc34)cc2cn1` [Compound 267, 5-(5-(Piperidin-1-ylmethyl)pyridin-3-yl)-3-(1H-pyrrolo[3,2-c]pyridin-2-yl)-1H-indazole], the EC50 in assay [1] stood at 571 nM; in assay [2], 288 nM; in assay [3] it was 685 nM; in assay [4], 100 nM; in assay [5] it was 422 nM. The Emax in assay [4] was 122%.

In the case of `Cc1ccncc1-c1ccc2[nH]nc(-c3cc4c(-c5ccoc5)nccc4[nH]3)c2c1` [Compound 313, 3-(4-(Furan-3-yl)-1H-pyrrolo[3,2-c]pyridin-2-yl)-5-(4-methylpyridin-3-yl)-1H-indazole], the EC50 in assay [1] is 286 nM; in assay [2] it was 649 nM; in assay [3] it was 614 nM; in assay [4], 2700 nM; in assay [5], 1580 nM. Besides, the Emax in assay [4] amounted to 153%.

As to `CC(C)C(=O)Nc1cncc(-c2ccc3[nH]nc(-c4cc5c(-c6ccccc6F)nccc5[nH]4)c3c2)c1` [Compound 65, N-(5-(3-(4-(2-Fluorophenyl)-1H-pyrrolo[3,2-c]pyridin-2-yl)-1H-indazol-5-yl)pyridin-3-yl)isobutyramide], the EC50 came out at 98 nM in assay [1]; 73 nM in assay [2]; 170 nM in assay [3]; 2700 nM in assay [4]; 221 nM in assay [5]. In assay [4], the Emax is 108%.

By inhibition is commonly meant the percentage by which the read-out fell short of the control.
